Reference: paper PMC6928678, “Simplified Head-to-Tail Cyclic Polypeptides as Biomaterial-Associated Antimicrobials with Endotoxin Neutralizing and Anti-Inflammatory Capabilities” (International Journal of Molecular Sciences, 2019)
Values after ≈ are worked out from the molar mass of the structure shown. Where a SMILES comes first, the peptide text is derived from it. [ ]: non-standard residue; d: D form. Orn = NCCC[C@H](N)C(=O)O

Experiments:
P. aeruginosa 27853 = assay: microbe, parasite or virus in culture; type: cell-based; conditions: 27853, 20 h; read-out: MIC
Description: (§1) The test strains, including Gram-negative E. coli ATCC25922, E. coli ATCC 1005, S. typhimurium C7731, P. aeruginosa ATCC 27853, S. Typhimurium 14028, Gram-positive S. aureus ATCC29213, S. aureus ATCC 25923, S. epidermidis ATCC 12228 and S. aureus 43300, were obtained from the School of Veterinary Medicine, Northeast Agricultural University (Harbin, China).
(§2) Briefly, the bacteria were incubated overnight at 37 °C with constant shaking at 220 rpm, then were transferred to new MH broth (MHB) medium until they reached the logarithmic phase of growth. The bacteria were then diluted to 10^5 (CFU)/mL in MHB. The peptides were dissolved and diluted in 0.01% acetic acid and 0.2% bovine serum albumin (BSA) at various concentrations (0.5–128 μM) in each well of sterile 96-well plates and incubated for 20 h at 37 °C. […] The test was repeated three times.

S. epidermidis 12228 = assay: microbe, parasite or virus in culture; type: cell-based; conditions: 12228, 20 h
Description: as §1, §2

S. typhimurium 14028 = assay: microbe, parasite or virus in culture; type: cell-based; conditions: 14028, 20 h
Description: as §1, §2

S. typhimurium 7731 = assay: microbe, parasite or virus in culture; type: cell-based; conditions: 7731, 20 h
Description: as §1, §2

[1] = test system: human red blood cells (hRBCs); assay: Hemolysis assay; type: cell-based; conditions: red cells of human, 1 h
Description: Figure 2 (A) Hemolytic activity of the engineered peptides against human red blood cells (hRBCs). The hRBCs were incubated with equal amounts of the respective peptides dissolved in PBS for 1 h at 37 °C. (B) Cytotoxicity of the engineered peptides against RAW264.7. […] Data shown are three independent experiments.
The hemolytic activity of the peptides is determined by measuring the amount of hemoglobin released during the lysis of human erythrocytes at different concentrations of AMPs. Briefly, fresh, healthy human red blood cells (hRBCs) were collected and then washed three times with phosphate-buffered saline (PBS) buffer (pH 7.2) and centrifuged at 1000× g for 5 min. Each 50 µL sample of hRBCs was incubated with 50 µL of the respective peptide dissolved in PBS in a well of a 96-well plate for 1 h at 37 °C. After incubation, the samples were centrifuged at 1000× g for 5 min and the supernatants (50 μL) were transferred to a new 96-well microplate. The release of hemoglobin was measured by monitoring the OD at 570 nm (Tecan, Salzburg, Austria). Negative (hRBCs without AMP treatment) and positive (hRBCs treated with 0.1% TritonX-100) controls were used. The concentration of peptide that caused 5% hemolysis was considered the minimal hemolysis concentration (MHC). The test was repeated three times. The percent hemolysis was calculated using the following formula:(2) Percent hemolysis=A−A0/At−A0× 100% A0 and At represent 0% and 100% hemolysis as measured in 10 mM PBS and 0.2% Triton X-100, respectively.

RAW264.7 cells = assay: MTT cytotoxicity assay; type: cell-based, mouse; conditions: 0.5–128 μM, 24 h
Description: Figure 2 (A) Hemolytic activity of the engineered peptides against human red blood cells (hRBCs). The hRBCs were incubated with equal amounts of the respective peptides dissolved in PBS for 1 h at 37 °C. (B) Cytotoxicity of the engineered peptides against RAW264.7. The cells were incubated with various concentrations (0.5–128 μM) of peptides for 24 h, and the cell viability was determined by the MTT assay. Data shown are three independent experiments.
The MTT (3-[4, 5 dimethylthiozol-2-yl]-2,5-diphenyltetrazolium bromide) assay was conducted according to a previously reported MTT colorimetric method, and is used as a cell proliferation and cell viability assay. Mouse macrophage RAW264.7 cell lines stored in liquid nitrogen were recovered and cultured in a fully humidified atmosphere with 95% air and 5% CO2 at 37 °C. The cells were then diluted, added to 96-well plates at a final concentration of 2 × 10^5 cells/well, and cultured in RPMI 1640 medium at 37 °C overnight. The next day, peptides were added to the cell cultures at final concentrations of 0.5–128 μM, and untreated cell cultures serving as controls were cultured for 20–24 h in the same conditions. […] 150 μL of DMSO was added to dissolve the formazan crystals, and the OD was measured using a microplate reader (Tecan GENios F129004, Salzburg, Austria) at 570 nm. […]

[2] = test system: lipopolysaccharide (LPS, derived from E. coli 055: B5); assay: BODIPY-TR-cadaverine displacement assay (LPS binding)
Description: Figure 3 (A) The combining ability of OIR3 and gramicidin S (GS; 0.5 μM, 1 μM, 2 μM, […], 8 μM, 16 μM and 32 μM) with lipopolysaccharide (LPS). (B) SPR spectroscopy of the interaction kinetics of the peptides and LPS. The peptides were immobilized on a CM5 sensor chip as a ligand, and LPS was diluted in a series of concentrations (3.125, 6.25, 12.5, 25 and 50 μg/mL). Data shown are three independent experiments.
The BODIPY-TR-cadaverine (BC) displacement assay was previously used to quantify the binding affinities of test compounds to LPS [61]. The fluorescent dye BC is quenched by binding to LPS, causing its fluorescence to disappear. When the antimicrobial peptide is added, if the binding of the peptide to LPS is stronger, BODIPY-TR-cadaverine will be released and the fluorescence restored. Briefly, in a 96-well plate, an equal volume with a different concentration (0.5–64 μM) of peptide was added to a mixture (100 μL) of LPS (25 μg/mL) and BC (2.5 μg/mL) in Tris buffer (pH 7.4), and the background fluorescence was recorded (excitation wavelength 580 nm, emission wavelength 620 nm). The changes in fluorescence were recorded using a Tecan Infinite M200 PRO (Tecan, San Jose, CA, USA); polymyxin B was used as a positive control. Each test was performed independently, in triplicate.

[3] = RP-HPLC used as measure of hydrophobicity; 4.6 mm × 250 mm Venusil MP C18-5 column, 220 nm, linear acetonitrile gradient 15% to 45% in 30 min, 0.1% trifluoroacetic acid, 1 mL/min
From the text: In this experiment, cyclic, linear and D-proline antimicrobial peptides were designed based on the IR-rich template sequence (IR)nP(IR)nP (n = 1, 2 and 3). […] The […] molecular weights of the peptides were identified using mass spectrometry. […] The hydrophobicity of the peptides in solution is dependably mirrored by the HPLC retention times.

Row | Structure (SMILES) | MIC (P. aeruginosa 27853) | MIC (S. epidermidis 12228) | MIC (S. typhimurium 14028) | MIC (S. typhimurium 7731) | MHC5, minimum hemolytic concentration that induced ≥5% hemolysis [1] | toxicity towards mammalian cells (RAW264.7) (RAW264.7 cells) | combining ability with LPS ([2]; all concentrations tested (0.5–32 μM)) | RT (retention time) [3] | LPS-binding activity ([2]; 2 μM peptide, BODIPY-TR-cadaverine displacement, LPS 25 μg/mL, Tris buffer pH 7.4) | LPS neutralized (LPS-binding activity) ([2]; 4 μM peptide, BODIPY-TR-cadaverine displacement, LPS 25 μg/mL, Tris buffer pH 7.4)
1 | CC(C)C[C@@H]1NC(=O)[C@H](CCCN)NC(=O)[C@H](C(C)C)NC(=O)[C@@H]2CCCN2C(=O)[C@@H](Cc2ccccc2)NC(=O)[C@H](CC(C)C)NC(=O)[C@H](CCCN)NC(=O)[C@H](C(C)C)NC(=O)[C@@H]2CCCN2C(=O)[C@@H](Cc2ccccc2)NC1=O [GS, gramicidin S, reference compound] (cyclo(V[Orn]L[dF]PV[Orn]L[dF]P)) | 4 µM (≈ 4.57 µg/mL) | 2 µM (≈ 2.28 µg/mL) | 16 µM (≈ 18.3 µg/mL) | 8 µM (≈ 9.13 µg/mL) | 8 µM | highly toxic | relatively low |  |  | 
2 | CC[C@H](C)[C@@H]1NC(=O)[C@H](CCCNC(=N)N)NC(=O)[C@H]([C@@H](C)CC)NC(=O)[C@@H]2CCCN2C(=O)[C@H](CCCNC(=N)N)NC(=O)[C@H]([C@@H](C)CC)NC(=O)[C@H](CCCNC(=N)N)NC(=O)[C@H]([C@@H](C)CC)NC(=O)[C@H](CCCNC(=N)N)NC(=O)[C@H]([C@@H](C)CC)NC(=O)[C@@H]2CCCN2C(=O)[C@H](CCCNC(=N)N)NC(=O)[C@H]([C@@H](C)CC)NC(=O)[C@H](CCCNC(=N)N)NC1=O [OIR3] (cyclo(IRIRIRPIRIRIRP)) | 8 µM (≈ 14.5 µg/mL) | 4 µM (≈ 7.24 µg/mL) | 4 µM (≈ 7.24 µg/mL) | 4 µM (≈ 7.24 µg/mL) | >128 µM |  |  | 12.64 min | 81% | 98%
